# Source: PMC10637841, “Evaluation of Antioxidant and Anti-Inflammatory Activities, and Metabolite Profiling of Selected Medicinal Plants of Nepal” (Journal of Tropical Medicine, 2023)
# Read-outs that look alike come from different tables or passages of the source.
# Legend:
# [1] = Ferric (Fe3+) ion reducing power; assay type: biochemical; conditions: ethanolic leaf extract 100-2000 μg/mL; mean ± SEM
# Method: (§1) The antioxidant activity of twelve plant extracts was estimated by using various methods, including (2, 2-diphenyl-1-picrylhidrazyl) DPPH free radical scavenging activity, ferrous (Fe^2+) ion chelating agent, ferric (Fe^3+) ion reducing power, nitric oxide (NO^−) scavenging activity, hydroxyl radical scavenging activity, hydrogen peroxide scavenging activity, and total antioxidant activity.
# The ferric ion-reducing antioxidant power assay of twelve plant extracts was carried out. The activity was confirmed when the color of the solution was changed from yellow to green and Prussian blue based on the reduction property of extracts and standard, which was measured at 700 nm wavelength using a UV spectrophotometer. The absorbance value was increased with the increasing concentration of plant extract (Table 4).
# [2] = Nitric oxide (NO) scavenging activity; assay type: biochemical; conditions: ethanolic leaf extract 100-2000 μg/mL; mean ± SEM
# Text: as §1
# [3] = Hydroxyl radical scavenging activity; assay type: biochemical; conditions: ethanolic leaf extract 100-2000 μg/mL; mean ± SEM
# Text: as §1
# [4] = Ferrous (Fe2+) ion chelating activity; assay type: biochemical; conditions: ethanolic leaf extract 100-2000 μg/mL; mean ± SEM
# Text: as §1
# [5] = Total antioxidant activity (phosphomolybdenum); assay type: biochemical; conditions: ethanolic leaf extract 100-2000 μg/mL; mean ± SEM
# Text: as §1
# [6] = Hydrogen peroxide scavenging activity; assay type: biochemical; conditions: ethanolic leaf extract 100-2000 μg/mL; mean ± SEM
# Text: as §1
# [7] = DPPH free radical scavenging activity; assay type: biochemical; conditions: ethanolic leaf extract 100-2000 μg/mL; mean ± SEM
# Text: as §1
# rats = test system: rats; set-up: method as in PMID 32061742; conditions: rats, 25, 50, and 100 mg/kg; ref [7]; cited from earlier work
# [8] = test system: human red blood cells (HRBC) membrane; test: HRBC membrane stabilization (heat-induced hemolysis); assay type: cell-based; conditions: Erythrocyte, read-out: HRBC membrane stabilization IC50
# Method: (1) Erythrocyte Suspension. With few modifications, the erythrocyte suspension was prepared using the technique outlined by Pieroni et al.. Healthy human volunteers provided the blood sample, which was centrifuged for 10 minutes at 1500 rpm. The red blood cell (RBC) pallet was washed three times with PBS (pH 7.4) following centrifugation. The buffy coat and supernatant liquid were aspirated out following each wash. The RBCs were resuspended in PBS at a concentration of 20% (v/v). (2) Heat-Induced Hemolysis. The method explained by Gunathilake et al. was used to determine the heat-induced hemolysis with some modifications. […] Then, the mixture was incubated for 20 minutes at 54°C in the water bath with continuous shaking. The mixture was incubated and centrifuged at 2500 rpm for 3 minutes. By using a UV spectrophotometer, the absorbance of supernatant was measured at 540 nm. In the experiment, PBS will be used as blank.
# [9] = ethanolic leaf extract 100-2000 μg/mL
smiles,measurement,setting,value
"COc1ccc(O)c(C(C)(C)C)c1 [BHA, Butylated Hydroxyl Annisole]",Ferric reducing IC50,[1],3.02 ± 0.30 µg/mL
same,Nitric oxide scavenging IC50,[2],5.58 ± 0.68 µg/mL
O=C1O[C@H]([C@@H](O)CO)C(O)=C1O [Ascorbic acid],Ferric reducing IC50,[1],2.47 ± 0.40 µg/mL
same,Hydroxyl radical scavenging IC50,[3],4.75 ± 0.43 µg/mL
same,Ferrous ion chelating IC50,[4],3.68 ± 0.59 µg/mL
same,Total antioxidant activity IC50,[5],2.87 ± 0.10 µg/mL
same,Nitric oxide scavenging IC50,[2],3.91 ± 0.80 µg/mL
same,H2O2 scavenging IC50,[6],3.31 ± 0.58 µg/mL
same,DPPH scavenging IC50,[7],4.54 ± 0.98 µg/mL
C=C1CC[C@@H]2[C@](C)(CO)[C@H](O)CC[C@@]2(C)[C@@H]1C/C=C1/C(=O)OC[C@H]1O [andrographolide],"Concentration of catalase, superoxide dismutase, and glutathione (antioxidant enzymes)",rats,increase
same,"Level of articular elastase, TNF-α, IL-6, CXC chemokine ligand 2, and myeloperoxidase",rats,decrease
"O=C(O)COC(=O)Cc1ccccc1Nc1c(Cl)cccc1Cl [Aceclofenac, aceclofenac]",IC50,[8]; [9],21.9 ± 2.34 µg/mL
"Cc1cc(C(C)(C)C)c(O)c(C(C)(C)C)c1 [BHT, Butylated Hydroxyl Toulene]",Hydroxyl radical scavenging IC50,[3],2.90 ± 0.98 µg/mL
same,Ferrous ion chelating IC50,[4],2.81 ± 0.82 µg/mL
same,H2O2 scavenging IC50,[6],2.89 ± 0.32 µg/mL
same,DPPH scavenging IC50,[7],2.90 ± 0.51 µg/mL
"CC(=O)Oc1ccccc1C(=O)O [Aspirin, aspirin]",IC50,[8]; [9],21.3 ± 0.43 µg/mL
"Cc1ccc(-c2ncc(Cl)cc2-c2ccc(S(C)(=O)=O)cc2)cn1 [Etoricoxib, etoricoxib]",IC50,[8]; [9],11 ± 1.65 µg/mL
"COc1ccc2c(c1)c(CC(=O)O)c(C)n2C(=O)c1ccc(Cl)cc1 [Indomethacin, indomethacin]",IC50,[8],7.14 ± 0.31 µg/mL
